{"source": "patent US8377691B2", "about": "(priority 2006, dated 2013)", "key": {"human KCNQ2/3 channel": {"molecular_target": "T1, human KCNQ2/3 channel (Homo sapiens, UniProt O43525+O43526)", "T1 construct": "made in house", "type": "biochemical"}, "[1]": {"type": "biochemical", "conditions": "for response to 30 mM K2SO4 after prior disruption of the lipoparticle structure: gramicidin (1 uM) or melittin (5 uM)"}, "A/M2/HK156/94": {"molecular_target": "A/M2/HK156/94 (Influenza A virus, UniProt O70632)", "sequence (O70632 whole entry, looked up)": "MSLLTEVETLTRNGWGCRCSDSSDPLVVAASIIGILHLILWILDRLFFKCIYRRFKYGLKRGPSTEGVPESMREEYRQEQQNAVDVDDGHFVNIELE", "experiment": "biochemical", "type": "biochemical", "conditions": "for H+ transport across VLP membranes (fluorescence): pH 4.5"}, "A/M2 Udorn72": {"molecular_target": "A/M2 Udorn72 (Influenza A virus, UniProt P0DOF5)", "sequence (P0DOF5 whole entry, looked up)": "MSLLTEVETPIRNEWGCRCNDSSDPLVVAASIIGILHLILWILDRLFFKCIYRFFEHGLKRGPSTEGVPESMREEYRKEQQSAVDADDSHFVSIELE", "type": "biochemical", "conditions": "pH 4.5"}, "[2]": {"molecular_target": "M2 viral ion channel, Influenza A (Udorn/72) virions (Influenza A virus, UniProt P0DOF5)", "sequence (P0DOF5 whole entry, looked up)": "as above", "type": "biochemical"}, "M2": {"test_system": "M2", "conditions": "cited from earlier work"}, "5HT3a cation channel": {"molecular_target": "5HT3a cation channel (Homo sapiens, UniProt P46098)", "sequence (P46098 24-478)": "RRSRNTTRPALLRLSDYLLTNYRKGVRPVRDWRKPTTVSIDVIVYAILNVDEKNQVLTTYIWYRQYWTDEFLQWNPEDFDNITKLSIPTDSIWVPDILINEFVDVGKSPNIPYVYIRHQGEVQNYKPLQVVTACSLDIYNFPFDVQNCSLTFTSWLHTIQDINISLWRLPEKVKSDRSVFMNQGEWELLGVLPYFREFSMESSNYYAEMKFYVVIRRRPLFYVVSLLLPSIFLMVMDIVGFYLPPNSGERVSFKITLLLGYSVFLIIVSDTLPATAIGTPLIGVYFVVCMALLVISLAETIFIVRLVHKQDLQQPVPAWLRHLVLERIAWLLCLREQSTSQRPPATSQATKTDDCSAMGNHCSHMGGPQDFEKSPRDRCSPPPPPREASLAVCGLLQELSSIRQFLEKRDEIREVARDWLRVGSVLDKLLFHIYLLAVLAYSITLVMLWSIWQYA", "type": "biochemical"}, "Shaker(Δ6-46)T449V": {"molecular_target": "T2, Shaker(Δ6-46)T449V (Drosophila melanogaster, UniProt P08510, DEL6-46/T449V)", "T2 construct": "made in house; host or cells: 293 / HEK-293 cells co-transfected with MLV Gag", "T2 sequence (P08510 with tags, fused parts or gaps DEL6-46/T449V)": "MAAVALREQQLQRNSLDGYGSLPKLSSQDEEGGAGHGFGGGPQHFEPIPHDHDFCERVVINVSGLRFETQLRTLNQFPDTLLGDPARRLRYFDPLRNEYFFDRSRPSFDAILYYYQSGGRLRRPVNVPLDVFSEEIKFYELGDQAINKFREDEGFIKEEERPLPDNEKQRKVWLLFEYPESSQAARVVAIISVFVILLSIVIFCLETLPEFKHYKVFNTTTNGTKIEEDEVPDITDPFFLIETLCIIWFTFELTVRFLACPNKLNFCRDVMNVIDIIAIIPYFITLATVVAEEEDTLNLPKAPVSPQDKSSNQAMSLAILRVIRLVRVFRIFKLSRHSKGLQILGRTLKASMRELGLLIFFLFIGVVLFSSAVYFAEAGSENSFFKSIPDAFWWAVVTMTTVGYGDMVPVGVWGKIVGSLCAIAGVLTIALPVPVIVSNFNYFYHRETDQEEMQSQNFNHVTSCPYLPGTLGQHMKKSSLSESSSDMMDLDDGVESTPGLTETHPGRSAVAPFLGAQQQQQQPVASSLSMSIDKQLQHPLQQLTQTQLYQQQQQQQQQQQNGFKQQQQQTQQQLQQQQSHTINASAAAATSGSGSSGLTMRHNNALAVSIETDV", "type": "biochemical", "conditions": "for Shaker activity: iberiotoxin (10 uM), margatoxin (10 uM); for lipoparticle Shaker activity: pre-treated with 10 nM toxin, duplicate experiments"}, "Shaker T449K mutant": {"molecular_target": "T3, Shaker T449K mutant (Drosophila melanogaster, UniProt P08510, T449K)", "T3 construct": "made in house", "T3 sequence (P08510 whole entry T449K)": "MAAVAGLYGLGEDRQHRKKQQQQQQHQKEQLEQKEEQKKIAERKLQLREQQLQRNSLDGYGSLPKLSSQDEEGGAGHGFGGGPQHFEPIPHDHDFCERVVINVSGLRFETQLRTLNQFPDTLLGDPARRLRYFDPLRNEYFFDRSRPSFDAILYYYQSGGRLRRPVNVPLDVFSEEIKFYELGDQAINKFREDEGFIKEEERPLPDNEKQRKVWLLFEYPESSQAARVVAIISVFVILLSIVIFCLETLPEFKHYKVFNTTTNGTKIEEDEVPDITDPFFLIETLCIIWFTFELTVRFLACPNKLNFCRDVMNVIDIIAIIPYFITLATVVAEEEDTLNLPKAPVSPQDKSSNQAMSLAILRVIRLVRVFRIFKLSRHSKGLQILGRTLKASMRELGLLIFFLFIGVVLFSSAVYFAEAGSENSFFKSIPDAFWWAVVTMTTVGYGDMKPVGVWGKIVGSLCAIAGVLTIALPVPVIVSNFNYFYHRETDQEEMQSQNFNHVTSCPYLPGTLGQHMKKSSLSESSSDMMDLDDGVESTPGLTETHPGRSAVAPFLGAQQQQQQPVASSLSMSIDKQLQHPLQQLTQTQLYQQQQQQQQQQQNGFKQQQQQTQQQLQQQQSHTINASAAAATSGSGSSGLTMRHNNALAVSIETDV", "type": "biochemical", "conditions": "10 nM CHTX pre-treatment"}, "Shaker": {"molecular_target": "Shaker (Drosophila melanogaster, UniProt P08510)", "sequence (P08510 whole entry)": "as the sequence (P08510 whole entry T449K) above, with K449T counted along it", "conditions": "cited from earlier work"}}, "note": "Entries after “also recorded” stand apart in the source; their conditions may differ. Read-outs that look alike come from different tables or passages of the source."}
{"compound": "[Ba+2].[Cl-].[Cl-]", "note": "[BaCl2]", "values": [{"measurement": "fluorescent signal on K+ addition", "setting": "human KCNQ2/3 channel; 20 mM BaCl2", "result": "inhibition"}, {"measurement": "fluorescent signal on K+ addition", "setting": "human KCNQ2/3 channel; 120 mM BaCl2 pre-treatment", "result": "capable of inhibiting the fluorescent signal"}]}
{"compound": "CC(C)[C@@H]1NC(=O)[C@H](C)OC(=O)[C@@H](C(C)C)NC(=O)[C@@H](C(C)C)OC(=O)[C@H](C(C)C)NC(=O)[C@H](C)OC(=O)[C@@H](C(C)C)NC(=O)[C@@H](C(C)C)OC(=O)[C@H](C(C)C)NC(=O)[C@H](C)OC(=O)[C@@H](C(C)C)NC(=O)[C@@H](C(C)C)OC1=O", "note": "[Valinomycin, valinomycin]", "values": [{"measurement": "fluorescent signal on K+ exposure (normalized to baseline)", "setting": "[1]; valinomycin-treated null-lipoparticles, twelve replicates, microplate, mean+/−standard deviation, untreated 1.023+/−0.009", "result": "1.347+/−0.036"}]}
{"compound": "NC12CC3CC(CC(C3)C1)C2", "note": "[amantadine]", "values": [{"measurement": "Hillslope of inhibition curve", "setting": "A/M2/HK156/94", "result": "−0.71"}, {"measurement": "IC50", "setting": "A/M2/HK156/94", "result": 980, "unit": "nM"}, {"measurement": "mean change in fluorescence resulting from MES addition", "setting": "A/M2/HK156/94", "result": "314±206"}, {"measurement": "H+ transport across VLP membranes (fluorescence)", "setting": "A/M2/HK156/94", "result": "abrogated the subsequent movement of H^+; also recorded: in the absence, but not in the presence of amantadine"}, {"measurement": "H+ transport fluorescence signal", "setting": "A/M2 Udorn72", "result": "inhibited the fluorescent response; also recorded: abrogated the subsequent movement of H^+; also recorded: completely abrogated"}, {"measurement": "fluorescent signal (membrane potential response) on low pH challenge", "setting": "[2]", "result": "attenuated the fluorescent signal in a dose-dependent fashion; also recorded: inhibited"}, {"measurement": "IC50", "setting": "M2; other measures of M2 function, such as plaque assay, read-out: IC50 reported in the literature", "result": "1 to 10", "unit": "µM"}]}
{"compound": "CC[C@H](C)[C@H](NC(=O)CN)C(=O)NCC(=O)N[C@@H](C)C(=O)N[C@H](C(=O)N[C@@H](CC(C)C)C(=O)N[C@@H](CCCCN)C(=O)N[C@H](C(=O)N[C@@H](CC(C)C)C(=O)N[C@H](C(=O)N[C@H](C(=O)NCC(=O)N[C@@H](CC(C)C)C(=O)N1CCC[C@H]1C(=O)N[C@@H](C)C(=O)N[C@@H](CC(C)C)C(=O)N[C@H](C(=O)N[C@@H](CO)C(=O)N[C@@H](Cc1c[nH]c2ccccc12)C(=O)N[C@H](C(=O)N[C@@H](CCCCN)C(=O)N[C@@H](CCCNC(=N)N)C(=O)N[C@@H](CCCCN)C(=O)N[C@@H](CCCNC(=N)N)C(=O)N[C@@H](CCC(N)=O)C(=O)N[C@@H](CCC(N)=O)C(N)=O)[C@@H](C)CC)[C@@H](C)CC)[C@@H](C)O)[C@@H](C)O)C(C)C)C(C)C", "note": "[melittin]", "values": [{"measurement": "response to 30 mM K2SO4 after prior disruption of the lipoparticle structure", "setting": "[1]", "result": "eliminated the response"}]}
{"compound": "CC(N)C12CC3CC(CC(C3)C1)C2", "note": "(stereo not drawn) [rimantadine]", "values": [{"measurement": "Hillslope of inhibition curve", "setting": "A/M2/HK156/94", "result": "−1.1"}, {"measurement": "IC50", "setting": "A/M2/HK156/94", "result": 180, "unit": "nM"}, {"measurement": "mean change in fluorescence resulting from MES addition", "setting": "A/M2/HK156/94", "result": "−432±167"}, {"measurement": "H+ transport across VLP membranes (fluorescence)", "setting": "A/M2/HK156/94", "result": "abrogated the subsequent movement of H^+"}, {"measurement": "H+ transport fluorescence signal", "setting": "A/M2 Udorn72", "result": "inhibited the fluorescent response; also recorded: abrogated the subsequent movement of H^+; also recorded: completely abrogated"}, {"measurement": "potency relative to amantadine reported in the literature", "setting": "M2; more potent than amantadine", "result": "approximately 10 times"}]}
{"compound": "NCCc1c[nH]c2ccc(O)cc12", "note": "[serotonin]", "values": [{"measurement": "dependence of the fluorescent signal on the ligand", "setting": "5HT3a cation channel", "result": "dependent upon the presence; also recorded: omission of the ion channel ligand, serotonin, from the assay mix resulted in no change in fluorescence intensity"}]}
{"compound": "COc1cc2c3cc1Oc1cc(ccc1O)C[C@@H]1c4c(cc(OC)c(O)c4Oc4ccc(cc4)C[C@@H]3N(C)CC2)CC[N+]1(C)C", "note": "[tubocurarine]", "values": [{"measurement": "fluorescent signal on Na+ addition", "setting": "5HT3a cation channel", "result": "capable of inhibiting the fluorescent signal; also recorded: inhibition"}]}
{"compound": "charybdotoxin [CHTX]", "values": [{"measurement": "Shaker conductance of K+ across lipoparticle membranes", "setting": "Shaker(Δ6-46)T449V; 10 nM CHTX pre-incubation, 30 mM K2SO4", "result": "completely inhibited"}, {"measurement": "inhibition of the fluorescent signal over a concentration range", "setting": "Shaker(Δ6-46)T449V; CHTX 100 pM to 10 nM, 10 ug Shaker plasmid", "result": "concentration-dependent inhibition"}, {"measurement": "low concentration at which inhibition of membrane depolarization was evident", "setting": "Shaker(Δ6-46)T449V; lipoparticles produced using 10 ug Shaker plasmid, 30 mM K2SO4", "result": 0.1, "unit": "nM"}, {"measurement": "fluorescent signal on K+ addition", "setting": "Shaker T449K mutant", "result": "capable of inhibiting the fluorescent signal; also recorded: inhibition"}, {"measurement": "effect of channel inhibitor on valinomycin-mediated K+ movement (specificity control)", "setting": "[1]; null-lipoparticles pre-treated with 1 uM valinomycin, CHTX up to 10 nM, tubocurarine", "result": "did not influence; also recorded: had no effect"}, {"measurement": "CHTX inhibition of Shaker in cells reported in the literature", "setting": "Shaker", "result": "~3.6", "unit": "nM"}]}
{"compound": "gramicidin", "values": [{"measurement": "response to 30 mM K2SO4 after prior disruption of the lipoparticle structure", "setting": "[1]", "result": "eliminated the response"}]}
{"compound": "iberiotoxin (QFTDVDCSVSKECWSVCKDLFGVDRGKCMGKKCRCYQ; UniProt P24663 1-37, looked up)", "values": [{"measurement": "Shaker activity", "setting": "Shaker(Δ6-46)T449V", "result": "did not inhibit Shaker activity"}, {"measurement": "lipoparticle Shaker activity", "setting": "Shaker(Δ6-46)T449V; 30 mM K2SO4", "result": "do not influence"}]}
{"compound": "margatoxin (TIINVKCTSPKQCLPPCKAQFGQSAGAKCMNGKCKCYPH; UniProt P40755 1-39, looked up)", "values": [{"measurement": "Shaker activity", "setting": "Shaker(Δ6-46)T449V", "result": "did not inhibit Shaker activity"}, {"measurement": "lipoparticle Shaker activity", "setting": "Shaker(Δ6-46)T449V; 30 mM K2SO4", "result": "do not influence"}]}
